Values of other authors, collected in patent US20130274214A1, “METHOD FOR TREATING BLEPHARITIS” (INSPIRE PHARMACEUTICALS, INC., priority 2010, published 2013).

Test system: meibomian gland secretions (meibum)
Conditions: daily topical administration to the ocular surface; subjects with meibomian gland dysfunction

## CC[C@H]1OC(=O)[C@H](C)[C@@H](O[C@H]2C[C@@](C)(OC)[C@@H](O)[C@H](C)O2)[C@H](C)[C@@H](O[C@@H]2O[C@H](C)C[C@H](N(C)C)[C@H]2O)[C@](C)(O)C[C@@H](C)CN(C)[C@H](C)[C@@H](O)[C@]1(C)O [azithromycin]
  physicochemical properties of the meibum: improved the physicochemical properties of the meibum towards that of normal subjects
